The values below are quoted from earlier work in patent US20260116844A1, “LIPID NANOPARTICLE FORMULATION COMPRISING IONIZED LIPIDS WITH BRANCHED STRUCTURE, AND USE THEREOF” (SurgiNex Co., Ltd., priority 2022, published 2026).

In this series the test system is blood coagulation factor FVII.

Each structure is given as a SMILES string.

In the case of `CCCCC/C=C\C/C=C\CCCCCCCCC(CCCCCCCC/C=C\C/C=C\CCCCC)OC(=O)CCCN(C)C` [Dlin-MC3-DMA], the 50% effective dose (ED50) (mouse FVII model, siRNA delivery) was 5 µg/kg. Also, where the note is “mouse, in vivo”, the “times more effective than existing ionized lipids” value is reported as “approximately 1000 times”.

What is called ED50 is the midpoint of the dose-response relation.
